pIC50: −log10 of the molar value. Like-named read-outs stand apart in the source and are kept apart here.
What was measured:
CDK2/CycE = CDK2/CycE (Homo sapiens, UniProt P24941); experiment: CDK2/CycE kinase assay (TR-FRET, Method 2)
Description: CDK2/CycE-inhibitory activity of compounds of the present invention was quantified employing the CDK2/CycE TR-FRET assay as described in the following paragraphs:
Recombinant fusion proteins of GST and human CDK2 and of GST and human CycE, expressed in insect cells (Sf9) and purified by Glutathion-Sepharose affinity chromatography, were purchased from ProQinase GmbH (Freiburg, Germany). As substrate for the kinase reaction biotinylated peptide biotin-Ttds-[sequence] (C-terminus in amid form) was used which can be purchased e.g. form the company JERINI Peptide Technologies (Berlin, Germany).
For the assay 50 nl of a 100 fold concentrated solution of the test compound in DMSO was pipetted into a black low volume 384 well microtiter plate (Greiner Bio-One, Frickenhausen, Germany), 2 μl of a solution of CDK2/CycE in aqueous assay buffer [50 mM Tris/HCl pH 8.0, 10 mM MgCl2, 1.0 mM dithiothreitol, 0.1 mM sodium ortho-vanadate, 0.01% (v/v) Nonidet-P40 (Sigma)] were added and the mixture was incubated for 15 min at 22° C. to allow pre-binding of the test compounds to the enzyme before the start of the kinase reaction. Then the kinase reaction was started by the addition of 3 μl of a solution of adenosine-tri-phosphate (ATP, 16.7 μM=>final conc. in the 5 μl assay volume is 10 μM) and substrate (1.25 μM=>final conc. in the 5 μl assay volume is 0.75 μM) in assay buffer and the resulting mixture was incubated for a reaction time of 25 min at 22° C. The concentration of CDK2/CycE was adjusted depending of the activity of the enzyme lot and was chosen appropriate to have the assay in the linear range, typical concentrations were in the range of 130 ng/mL. The reaction was stopped by the addition of 5 μl of a solution of TR-FRET detection reagents (0.2 μM streptavidine-XL665 [Cisbio Bioassays, Codolet, France] and 1 nM anti-RB(pSer807/pSer811)-antibody from BD Pharmingen [#558389] and 1.2 nM LANCE EU-W1024 labeled anti-mouse IgG antibody [Perkin-Elmer, product no. AD0077]) in an aqueous EDTA-solution (100 mM EDTA, 0.2% (w/v) bovine serum albumin in 100 mM HEPES/NaOH pH 7.0).
The resulting mixture was incubated 1 h at 22° C. to allow the formation of complex between the phosphorylated biotinylated peptide and the detection reagents. Subsequently the amount of phosphorylated substrate was evaluated by measurement of the resonance energy transfer from the Eu-chelate to the streptavidine-XL. Therefore, the fluorescence emissions at 620 nm and 665 nm after excitation at 350 nm was measured in a TR-FRET reader, e.g. a Rubystar (BMG Labtechnologies, Offenburg, Germany) or a Viewlux (Perkin-Elmer). The ratio of the emissions at 665 nm and at 622 nm was taken as the measure for the amount of phosphorylated substrate.

CDK9/CycT1 [1] = molecular target: T1, CDK9/CycT1 (Homo sapiens, UniProt P50750)
Experimental: CDK9/CycT1 High ATP Kinase Assay
CDK9/CycT1-inhibitory activity of compounds of the present invention at a high ATP concentration after preincubation of enzyme and test compounds was quantified employing the CDK9/CycT1 TR-FRET assay as described in the following paragraphs.
Recombinant full-length His-tagged human CDK9 and CycT1, expressed in insect cells and purified by Ni-NTA affinity chromatography, were purchase from Invitrogen (Cat. No PV4131). As substrate for the kinase reaction biotinylated peptide biotin-Ttds-[sequence]
For the assay 50 nl of a 100 fold concentrated solution of the test compound in DMSO was pipetted into a black low volume 384 well microtiter plate (Greiner Bio-One, Frickenhausen, Germany), 2 μl of a solution of CDK9/CycT1 in aqueous assay buffer [50 mM Tris/HCl pH 8.0, 10 mM MgCl2, 1.0 mM dithiothreitol, 0.1 mM sodium ortho-vanadate, 0.01% (v/v) Nonidet-P40 (Sigma)] were added and the mixture was incubated for 15 min at 22° C. to allow pre-binding of the test compounds to the enzyme before the start of the kinase reaction. Then the kinase reaction was started by the addition of 3 μl of a solution of adenosine-tri-phosphate (ATP, 3.3 mM=>final conc. in the 5 μl assay volume is 2 mM) and substrate (1.67 μM=>final conc. in the 5 μl assay volume is 1 μM) in assay buffer and the resulting mixture was incubated for a reaction time of 25 min at 22° C. The concentration of CDK9/CycT1 was adjusted depending of the activity of the enzyme lot and was chosen appropriate to have the assay in the linear range, typical concentrations were in the range of 0.5 μg/mL. The reaction was stopped by the addition of 5 μl of a solution of TR-FRET detection reagents (0.2 μM streptavidine-XL665 [Cisbio Bioassays, Codolet, France] and 1 nM anti-RB(pSer807/pSer811)-antibody from BD Pharmingen [#558389] and 1.2 nM LANCE EU-W1024 labeled anti-mouse IgG antibody [Perkin-Elmer, product no. AD0077]) in an aqueous EDTA-solution (100 mM EDTA, 0.2% (w/v) bovine serum albumin in 100 mM HEPES/NaOH pH 7.0).
(§2) The resulting mixture was incubated 1 h at 22° C. to allow the formation of complex between the phosphorylated biotinylated peptide and the detection reagents. Subsequently the amount of phosphorylated substrate was evaluated by measurement of the resonance energy transfer from the Eu-chelate to the streptavidine-XL. Therefore, the fluorescence emissions at 620 nm and 665 nm after excitation at 350 nm was measured in a HTRF reader, e.g. a Rubystar (BMG Labtechnologies, Offenburg, Germany) or a Viewlux (Perkin-Elmer). The ratio of the emissions at 665 nm and at 622 nm was taken as the measure for the amount of phosphorylated substrate.

HeLa cells = experiment: Proliferation assay, HeLa; format: cell-based; settings: Homo sapiens, 96 h, read-out: Inhibition of HeLa cell proliferation IC50
Experimental: (§1) After 24 hours, the cells of one plate (zero-point plate) were stained with crystal violet (see below), while the medium of the other plates was replaced by fresh culture medium (200 μl), to which the test substances were added in various concentrations (0 μM, as well as in the range of 0.001-10 μM; the final concentration of the solvent dimethyl sulfoxide was 0.5%). The cells were incubated for 4 days in the presence of test substances. Cell proliferation was determined by staining the cells with crystal violet: the cells were fixed by adding 20 μl/measuring point of an 11% glutaric aldehyde solution for 15 minutes at room temperature. After three washing cycles of the fixed cells with water, the plates were dried at room temperature. The cells were stained by adding 100 μl/measuring point of a 0.1% crystal violet solution (pH 3.0). After three washing cycles of the stained cells with water, the plates were dried at room temperature. The dye was dissolved by adding 100 μl/measuring point of a 10% acetic acid solution. […] The change of cell number, in percent, was calculated by normalization of the measured values to the extinction values of the zero-point plate (=0%) and the extinction of the untreated (0 μm) cells (=100%).

CDK9/CycT1 [2] = molecular target: T1, CDK9/CycT1; experiment: CDK9/CycT1 kinase assay (TR-FRET, Method 1a)
Description: CDK9/CycT1-inhibitory activity of compounds of the present invention was quantified employing the CDK9/CycT1 TR-FRET assay as described in the following paragraphs:
Recombinant full-length His-tagged human CDK9 and CycT1, expressed in insect cells and purified by Ni-NTA affinity chromatography, were purchased from Invitrogen (Cat. No PV4131). As substrate for the kinase reaction biotinylated peptide biotin-Ttds-[sequence] (C-terminus in amid form) was used which can be purchased e.g. form the company JERINI Peptide Technologies (Berlin, Germany).
For the assay 50 nl of a 100 fold concentrated solution of the test compound in DMSO was pipetted into a black low volume 384 well microtiter plate (Greiner Bio-One, Frickenhausen, Germany), 2 μl of a solution of CDK9/CycT1 in aqueous assay buffer [50 mM Tris/HCl pH 8.0, 10 mM MgCl2, 1.0 mM dithiothreitol, 0.1 mM sodium ortho-vanadate, 0.01% (v/v) Nonidet-P40 (Sigma)] were added and the mixture was incubated for 15 min at 22° C. to allow pre-binding of the test compounds to the enzyme before the start of the kinase reaction. Then the kinase reaction was started by the addition of 3 μl of a solution of adenosine-tri-phosphate (ATP, 16.7 μM=>final conc. in the 5 μl assay volume is 10 μM) and substrate (1.67 μM=>final conc. in the 5 μl assay volume is 1 μM) in assay buffer and the resulting mixture was incubated for a reaction time of 25 min at 22° C. The concentration of CDK9/CycT1 was adjusted depending of the activity of the enzyme lot and was chosen appropriate to have the assay in the linear range, typical concentrations were in the range of 1 μg/mL. The reaction was stopped by the addition of 5 μl of a solution of TR-FRET detection reagents (0.2 μM streptavidine-XL665 [Cisbio Bioassays, Codolet, France] and 1 nM anti-RB(pSer807/pSer811)-antibody from BD Pharmingen [#558389] and 1.2 nM LANCE EU-W1024 labeled anti-mouse IgG antibody [Perkin-Elmer, product no. AD0077]) in an aqueous EDTA-solution (100 mM EDTA, 0.2% (w/v) bovine serum albumin in 100 mM HEPES/NaOH pH 7.0).
as §2

HeLa-MaTu-ADR cells = experiment: Proliferation assay, HeLa-MaTu-ADR; format: cell-based; settings: Homo sapiens, 96 h, read-out: Inhibition of HeLa-MaTu-ADR cell proliferation IC50
Experimental: as §1

NCI-H460 cells = experiment: Proliferation assay, NCI-H460; format: cell-based; settings: Homo sapiens, read-out: Inhibition of NCI-H460 cell proliferation IC50
Experimental: as §1

Caco-2 cells = experiment: Proliferation assay, Caco-2; format: cell-based; settings: Homo sapiens, read-out: Inhibition of Caco-2 cell proliferation IC50
Experimental: as §1

B16F10 cells = experiment: Proliferation assay, B16F10; format: cell-based; settings: Mus musculus, B16-F10, 96 h, read-out: Inhibition of B16F10 cell proliferation IC50
Experimental: as §1

DU145 cells = experiment: Proliferation assay, DU145; format: cell-based; settings: Homo sapiens, DU-145, 96 h, read-out: Inhibition of DU145 cell proliferation IC50
Experimental: as §1

Caco-2 permeation assay = format: in vitro ADME; settings: human, pH 7.2, Caco-2, test compound 2 μM
Experimental: 4. Caco-2 Permeation Assay:
Caco-2 cells (purchased from DSMZ Braunschweig, Germany) were seeded at a density of 4.5×10^4 cells per well on 24 well insert plates, 0.4 μm pore size, and grown for 15 days in DMEM medium supplemented with 10% fetal bovine serum, 1% GlutaMAX (100×, GIBCO), 100 U/mL penicillin, 100 μg/mL streptomycin (GIBCO) and 1% non essential amino acids (100×). Cells were maintained at 37° C. in a humified 5% CO2 atmosphere. Medium was changed every 2-3 day. Before running the permeation assay, the culture medium was replaced by a FCS-free hepes-carbonate transport buffer (pH 7.2). For assessment of monolayer integrity the transepithelial electrical resistance (TEER) was measured. Test compounds were predissolved in DMSO and added either to the apical or basolateral compartment in final concentration of 2 μM in transport buffer. Before and after 2 h incubation at 37° C. samples were taken from both compartments. Analysis of compound content was done after precipitation with methanol by LC/MS/MS analysis. Permeability (Papp) was calculated in the apical to basolateral (A→B) and basolateral to apical (B→A) directions. […] The efflux ratio basolateral (B) to apical (A) was calculated by dividing the Papp B−A by the Papp A−B. In addition the compound recovery was calculated. The following reference compounds were used for the classification of the permeability class: Antipyrine, Pyrazosin, Verapamil, Fluvastatin, Cimetidine, Ranitidine, Atenolol, Sulfasalazine.

[3] = HeLa-MaTu-ADR, 4 days, crystal violet
[4] = 96 h, NCI-H460, 4 days, crystal violet
[5] = 96 h, Caco-2, 4 days, crystal violet

T1 sequence (P50750 whole entry): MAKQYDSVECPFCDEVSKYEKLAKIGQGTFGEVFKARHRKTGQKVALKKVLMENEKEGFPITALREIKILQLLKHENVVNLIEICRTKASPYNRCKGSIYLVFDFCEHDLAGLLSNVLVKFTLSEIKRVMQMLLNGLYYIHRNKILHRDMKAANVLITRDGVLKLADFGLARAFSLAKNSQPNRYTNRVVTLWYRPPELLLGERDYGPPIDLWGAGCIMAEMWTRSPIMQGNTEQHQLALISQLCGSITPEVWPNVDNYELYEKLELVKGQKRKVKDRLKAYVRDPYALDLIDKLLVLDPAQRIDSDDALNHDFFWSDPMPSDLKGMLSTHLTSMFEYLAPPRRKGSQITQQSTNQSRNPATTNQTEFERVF
T1 sequence (O60563 whole entry partner): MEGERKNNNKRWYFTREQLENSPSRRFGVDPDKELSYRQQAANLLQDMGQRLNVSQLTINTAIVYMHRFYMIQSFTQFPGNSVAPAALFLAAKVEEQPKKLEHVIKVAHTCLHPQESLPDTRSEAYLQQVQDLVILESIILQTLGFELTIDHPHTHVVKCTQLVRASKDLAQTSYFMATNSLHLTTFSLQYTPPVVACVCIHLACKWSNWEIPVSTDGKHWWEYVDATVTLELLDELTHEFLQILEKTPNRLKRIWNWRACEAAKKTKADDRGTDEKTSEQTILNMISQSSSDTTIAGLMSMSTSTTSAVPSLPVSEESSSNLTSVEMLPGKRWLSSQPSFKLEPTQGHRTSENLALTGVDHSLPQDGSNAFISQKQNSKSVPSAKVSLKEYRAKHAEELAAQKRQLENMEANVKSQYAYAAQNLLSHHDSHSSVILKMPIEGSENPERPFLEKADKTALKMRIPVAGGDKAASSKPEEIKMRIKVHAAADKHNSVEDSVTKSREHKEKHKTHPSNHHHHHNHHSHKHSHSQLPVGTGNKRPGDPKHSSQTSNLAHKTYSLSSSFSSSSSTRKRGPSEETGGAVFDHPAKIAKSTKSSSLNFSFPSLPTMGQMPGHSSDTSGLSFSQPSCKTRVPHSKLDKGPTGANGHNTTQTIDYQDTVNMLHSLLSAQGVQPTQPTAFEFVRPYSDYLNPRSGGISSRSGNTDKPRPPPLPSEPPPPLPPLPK

Row | Compound | pIC50 (CDK2/CycE) | pIC50 (CDK9/CycT1 [1]) | pIC50 (HeLa cells; 4 days, crystal violet) | pIC50 (CDK9/CycT1 [2]) | pIC50 (HeLa-MaTu-ADR cells; [3]) | pIC50 (NCI-H460 cells; [4]) | pIC50 (Caco-2 cells; [5]) | pIC50 (B16F10 cells; B16F10, 4 days, crystal violet) | pIC50 (DU145 cells; DU145, 4 days, crystal violet) | also measured
1 | COc1cc(F)ccc1-c1nc(Nc2cccc(CS(=O)(=O)Cc3ccccc3)c2)ncc1F [Example 15, N-{3-[(Benzylsulfonyl)methyl]phenyl}-5-fluoro-4-(4-fluoro-2-methoxyphenyl)-pyrimidin-2-amine] | 5.96 | 7.08 | 5.74 | 8.00 | – | – | – | – | – | –
2 | CS(=O)(=O)Cc1cccc(Nc2ncc(F)c(-c3ccc(F)cc3OCc3cccnc3)n2)c1 [Example 16, 5-Fluoro-4-[4-fluoro-2-(pyridin-3-ylmethoxy)phenyl]-N-{3-[(methylsulfonyl)methyl]phenyl}pyrimidin-2-amine] | 6.09 | 7.72 | 6.42 | 8.10 | 6.46 | 6.49 | 6.36 | 6.39 | 6.52 | –
3 | CS(=O)(=O)Cc1cc(F)cc(Nc2ncc(F)c(-c3ccc(F)cc3OCc3ccccc3)n2)c1 [Example 11, 4-[2-(Benzyloxy)-4-fluorophenyl]-5-fluoro-N-{3-fluoro-5-[(methylsulfonyl)methyl]phenyl}pyrimidin-2-amine] | 5.96 | – | 6.00 | – | – | – | – | – | – | –
4 | COc1cc(F)ccc1-c1nc(Nc2cccc(CS(C)(=O)=O)c2)ncc1F [Example 1, 5-Fluoro-4-(4-fluoro-2-methoxyphenyl)-N-{3 [(methylsulfonyl)methyl]phenyl}pyrimidin-2-amine] | 6.52 | – | 6.54 | – | 6.77 | 6.48 | 6.59 | 6.51 | 6.54 | Papp A→B at 2 h, 2 μM (Caco-2 permeation assay; apical to basolateral, read-out: Papp A-B (Mari)): 20.6 ×10⁻⁶ cm/s; Papp B→A at 2 h, 2 μM (Caco-2 permeation assay; basolateral to apical, read-out: Papp B-A (Mari)): 8.5 ×10⁻⁶ cm/s
5 | CC(C)S(=O)(=O)Cc1cccc(Nc2ncc(F)c(-c3ccc(F)cc3OCc3ccccc3)n2)c1 [Example 5, 4-[2-(Benzyloxy)-4-fluorophenyl]-5-fluoro-N-{3-[(propan-2-ylsulfonyl)methyl]phenyl}pyrimidin-2-amine] | 5.80 | 7.70 | – | 7.85 | – | – | – | – | – | –
6 | COc1cc(F)ccc1-c1nc(Nc2cccc(CS(=O)(=O)C(C)C)c2)ncc1F [Example 7, 5-Fluoro-4-(4-fluoro-2-methoxyphenyl)-N-{3-[(propan-2-ylsulfonyl)methyl]phenyl}pyrimidin-2-amine] | 6.29 | – | 5.96 | – | – | – | – | – | – | –
7 | CS(=O)(=O)Cc1cccc(Nc2ncc(F)c(-c3cccc4c3OCCO4)n2)c1 [Example 13, 4-(2,3-Dihydro-1,4-benzodioxin-5-yl)-5-fluoro-N-{3-[(methylsulfonyl)methyl]phenyl}pyrimidin-2-amine] | 6.92 | 8.30 | – | 8.22 | – | – | – | – | – | pIC50 (HeLa-MaTu-ADR cells): 6.72; pIC50 (NCI-H460 cells; NCI-H460, 96 h): 6.47; pIC50 (Caco-2 cells; Caco-2, 96 h): 6.66; pIC50 (HeLa cells): 6.68; pIC50 (B16F10 cells): 6.29; pIC50 (DU145 cells): 6.51
8 | CS(=O)(=O)Cc1cccc(Nc2ncc(F)c(-c3cccc4c3OCCC4)n2)c1 [Example 9, 4-(3,4-Dihydro-2H-chromen-8-yl)-5-fluoro-N-{3-[(methylsulfonyl)methyl]phenyl}pyrimidin-2-amine] | 6.52 | – | 6.44 | – | 6.70 | 6.47 | 6.57 | 6.47 | 6.49 | –

Second part, led by results:

Row | pIC50 (CDK2/CycE) | pIC50 (CDK9/CycT1 [1]) | pIC50 (HeLa cells; 4 days, crystal violet) | pIC50 (CDK9/CycT1 [2]) | pIC50 (HeLa-MaTu-ADR cells; [3]) | pIC50 (NCI-H460 cells; [4]) | pIC50 (Caco-2 cells; [5]) | pIC50 (B16F10 cells; B16F10, 4 days, crystal violet) | pIC50 (DU145 cells; DU145, 4 days, crystal violet) | Compound | also measured
9 | 6.11 | 7.40 | 6.17 | 8.10 | – | – | – | – | – | COc1cc(F)ccc1-c1nc(Nc2cccc(CS(=O)(=O)C3CC3)c2)ncc1F [Example 14, N-{3-[(Cyclopropylsulfonyl)methyl]phenyl}-5-fluoro-4-(4-fluoro-2-methoxyphenyl)pyrimidin-2-amine] | –
10 | 6.51 | 6.99 | 6.00 | 8.05 | 6.42 | 6.15 | 6.15 | 6.02 | 6.19 | COc1cc(F)ccc1-c1nc(Nc2cccc(CS(=O)(=O)CCO)c2)ncc1F [Example 8, 2-[(3-{[5-Fluoro-4-(4-fluoro-2-methoxyphenyl)pyrimidin-2-yl]amino}benzyl)sulfonyl]ethanol] | –
11 | 6.68 | – | 5.96 | – | – | – | – | – | – | O=S(=O)(Cc1cccc(Nc2ncc(F)c(-c3cccc4c3OCCC4)n2)c1)C1CC1 [Example 10, N-{3-[(Cyclopropylsulfonyl)methyl]phenyl}-4-(3,4-dihydro-2H-chromen-8-yl)-5-fluoropyrimidin-2-amine] | –
12 | 6.08 | 8.10 | 6.46 | 8.10 | 6.52 | 6.43 | 6.31 | 6.09 | 6.39 | CS(=O)(=O)Cc1cccc(Nc2ncc(F)c(-c3ccc(F)cc3OCc3ccccc3)n2)c1 [Example 2, 4-[2-(Benzyloxy)-4-fluorophenyl]-5-fluoro-N-{3-[(methylsulfonyl)methyl]phenyl}pyrimidin-2-amine] | –
13 | 5.51 | 7.10 | – | 7.54 | – | – | – | – | – | CC(C)(C)S(=O)(=O)Cc1cccc(Nc2ncc(F)c(-c3ccc(F)cc3OCc3ccccc3)n2)c1 [Example 4, 4-[2-(Benzyloxy)-4-fluorophenyl]-N-{3-[(tert-butylsulfonyl)methyl]phenyl}-5-fluoropyrimidin-2-amine] | –
14 | 5.92 | 8.00 | 5.92 | 8.00 | 6.00 | 5.92 | 5.96 | 5.92 | 5.89 | COCCS(=O)(=O)Cc1cccc(Nc2ncc(F)c(-c3ccc(F)cc3OCc3ccccc3)n2)c1 [Example 3, 4-[2-(Benzyloxy)-4-fluorophenyl]-5-fluoro-N-(3-{[(2-methoxyethyl)sulfonyl]methyl}phenyl)pyrimidin-2-amine] | –
15 | ≤ 4.70 | 7.01 | – | 7.29 | – | – | – | – | – | O=S(=O)(Cc1cccc(Nc2ncc(F)c(-c3ccc(F)cc3OCc3ccccc3)n2)c1)C1CCCCC1 [Example 6, 4-[2-(Benzyloxy)-4-fluorophenyl]-N-{3-[(cyclohexylsulfonyl)methyl]phenyl}-5-fluoropyrimidin-2-amine] | –
